How the values were obtained:
PPARα = target: T1, PPARα (Homo sapiens, UniProt Q07869); assay: PPARα receptor radioligand binding assay (SPA); conditions: GST-PPARα-LBD fusion protein on SPA beads
T1 construct: PPARα (aa 167 to 469); made in house; host or cells: E. coli BL21 (pLysS)
T1 sequence (Q07869 167-468 limits assumed): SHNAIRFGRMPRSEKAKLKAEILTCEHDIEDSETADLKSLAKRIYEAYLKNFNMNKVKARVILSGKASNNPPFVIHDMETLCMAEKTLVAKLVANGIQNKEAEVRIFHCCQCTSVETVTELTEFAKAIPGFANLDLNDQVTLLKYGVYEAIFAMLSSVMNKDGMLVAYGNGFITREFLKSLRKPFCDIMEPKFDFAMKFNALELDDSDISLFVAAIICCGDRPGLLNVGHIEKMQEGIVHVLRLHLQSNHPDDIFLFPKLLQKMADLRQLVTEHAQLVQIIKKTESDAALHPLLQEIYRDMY
From the text: (§1) Background information on the performed assays can be found in: Nichols J S et al. “Development of a scintillation proximity assay for peroxisome proliferator-activated receptor gamma ligand binding domain”, (1998) Anal. Biochem. 257:112–119.
(§2) Full-length cDNA clones for humans PPARδ and PPARα and mouse PPARγ were obtained by RT-PCR from human adipose and mouse liver cRNA, respectively, cloned into plasmid vectors and verified by DNA sequencing. Bacterial and mammalian expression vectors were constructed to produce glutathione-s-transferase (GST) and Gal4 DNA binding domain proteins fused to the ligand binding domains (LBD) of PPARδ (aa 139 to 442), PPARγ (aa 174 to 476) and PPARα (aa 167 to 469). To accomplish this, the portions of the cloned sequences encoding the LBDs were amplified from the full-length clones by PCR and then subcloned into the plasmid vectors. Final clones were verified by DNA sequence analysis.
(§3) Induction, expression, and purification of GST-LBD fusion proteins were performed in E. coli strain BL21 (pLysS) cells by standard methods (Ref: Current Protocols in Molecular Biology, Wiley Press, edited by Ausubel et al.).
(§4) PPARα receptor binding was assayed in TKE50 (50 mM Tris-HCl, pH 8, 50 mM KCl, 2 mM EDTA, 0.1 mg/ml fatty acid-free BSA and 10 mM DTT). For each 96 well reaction an 140 ng equivalent of GST-PPARα-LBD fusion protein was bound to 10 μg SPA beads (PharmaciaAmersham) in a final volume of 50 μl by shaking. The resulting slurry was incubated for 1 h at RT and centrifuged for 2 min at 1300 g. The supernatant containing unbound protein was removed and the semidry pellet containing the receptor-coated beads was resolved in 50 μl of TKE. […] All binding assays were performed in 96 well plates and the amount of bound ligand measured on a Packard TopCount using OptiPlates (Packard). Nonspecific binding was determined in the presence of 10^−4 M unlabelled compound. […]

PPARγ = target: T2, PPARγ (Mus musculus, UniProt P37238); assay: PPARγ receptor radioligand binding assay (SPA); conditions: GST-PPARγ-LBD fusion protein on SPA beads
T2 construct: PPARγ (aa 174 to 476); made in house; host or cells: E. coli BL21 (pLysS)
T2 sequence (P37238 174-475 isoform P37238-2): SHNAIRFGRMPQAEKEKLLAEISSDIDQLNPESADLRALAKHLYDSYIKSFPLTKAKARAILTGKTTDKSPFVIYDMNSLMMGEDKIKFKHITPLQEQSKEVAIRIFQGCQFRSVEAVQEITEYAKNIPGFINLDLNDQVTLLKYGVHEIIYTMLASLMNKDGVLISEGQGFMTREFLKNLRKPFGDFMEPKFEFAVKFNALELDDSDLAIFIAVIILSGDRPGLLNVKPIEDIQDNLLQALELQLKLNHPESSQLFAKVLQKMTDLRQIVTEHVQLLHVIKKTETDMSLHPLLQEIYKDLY
From the text: as §1, §2, §3
as §4, with “PPARγ receptor” for “PPARα receptor”, “reaction a” for “reaction an”, “of GST-PPARγ-LBD” for “of GST-PPARα-LBD”, “50 ul” for “50 μl”, “at 1300g.” for “at 1300 g.”

PPARδ = target: T3, PPARδ (Homo sapiens, UniProt Q03181); assay: PPARδ receptor radioligand binding assay (SPA); conditions: GST-PPARδ-LBD fusion protein on SPA beads
T3 construct: PPARδ (aa 139 to 442); made in house; host or cells: E. coli BL21 (pLysS)
T3 sequence (Q03181 139-441 limits assumed): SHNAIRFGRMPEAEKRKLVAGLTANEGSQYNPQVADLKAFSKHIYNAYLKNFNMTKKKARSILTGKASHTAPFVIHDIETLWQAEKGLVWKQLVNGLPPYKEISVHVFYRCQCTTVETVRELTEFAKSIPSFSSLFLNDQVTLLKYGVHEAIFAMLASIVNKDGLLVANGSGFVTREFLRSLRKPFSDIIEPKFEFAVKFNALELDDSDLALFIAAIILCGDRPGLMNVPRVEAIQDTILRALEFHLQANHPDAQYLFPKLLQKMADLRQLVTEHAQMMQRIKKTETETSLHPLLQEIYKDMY
From the text: as §1, §2, §3
PPARδ receptor binding was assayed in HNM10 (50 mM Hepes, pH 7.4, 10 mM NaCl, 5 mM MgCl2, 0.15 mg/ml fatty acid-free BSA and 15 mM DTT). For each 96 well reaction a 500 ng equivalent of GST-PPARδ-LBD fusion protein and radioligand, e.g. 20000 dpm {2-methyl-4-[4-methyl-2-(4-trifluoromethyl-phenyl)-thiazol-5-yl-ditritiomethylsulfanyl]-phenoxy}-acetic acid, was bound to 10 μg SPA beads (PharmaciaAmersham) in a final volume of 50 μl by shaking. The resulting slurry was incubated for 1 h at RT and centrifuged for 2 min at 1300 g. […] Radioligand was added and the reaction incubated at RT for 1 h and scintillation proximity counting performed in the presence of test compounds was determined. All binding assays were performed in 96 well plates and the amount of bound ligand was measured on a Packard TopCount using OptiPlates (Packard). […]

IC50 (PPARα)	IC50 (PPARγ)	IC50 (PPARδ)	melting point	Compound
289 nM	> 10000 nM	31 nM		Cc1cc(N(C)Cc2cnc(-c3ccc(C(F)(F)F)cc3)nc2C2CC2)ccc1OCC(=O)O [Example 27, (4-{[4-Cyclopropyl-2-(4-trifluoromethyl-phenyl)-pyrimidin-5-ylmethyl]-methyl-amino}-2-methyl-phenoxy)-acetic acid]
454 nM	> 10000 nM	2 nM		Cc1cc(OC(C)c2ccc(-c3ccc(C(F)(F)F)cc3)nc2C)ccc1SCC(=O)O (racemic) [Example 20, [rac]-(2-Methyl-4-{1-[2-methyl-6-(4-trifluoromethyl-phenyl)-pyridin-3-yl]-ethoxy}-phenylsulfanyl)-acetic acid]
13 nM	> 10000 nM	26 nM	105 to 107 °C	Cc1cc(OCc2ccc(-c3cccc(C(F)(F)F)c3)nc2C)ccc1OC(C)(C)C(=O)O [Example 8, 2-Methyl-2-{2-methyl-4-[2-methyl-6-(3-trifluoromethyl-phenyl)-pyridin-3-ylmethoxy]-phenoxy}-propionic acid]
			115 to 117 °C	Cc1cc(SC(C)c2ccc(-c3ccc(C(F)(F)F)cc3)nc2C)ccc1OCC(=O)O (racemic) [Example 17, [rac]-(2-Methyl-4-{1-[2-methyl-6-(4-trifluoromethyl-phenyl)-pyridin-3-yl]-ethylsulfanyl}-phenoxy)-acetic acid]
			73 to 75 °C	COCCCc1cc(N(C)Cc2ccc(-c3ccc(OC(F)(F)F)cc3)nc2)ccc1OCC(=O)O [Example 14, (2-(3-Methoxy-propyl)-4-{methyl-[6-(4-trifluoromethoxy-phenyl)-pyridin-3-ylmethyl]-amino}-phenoxy)-acetic acid]
			140.5 to 141.5 °C (dec.)	COCCc1nc(-c2ccc(C(F)(F)F)nc2)ncc1COc1ccc(OC(C)(C)C(=O)O)c(C)c1 [Example 102, 2-{4-[4-(2-Methoxy-ethyl)-2-(6-trifluoromethyl-pyridin-3-yl)-pyrimidin-5-ylmethoxy]-2-methyl-phenoxy}-2-methyl-propionic acid]
